Data taken from patent US12110288B2, “MASP-2 inhibitors and methods of use” (Omeros Corporation, priority 2019, dated 2024).
pKi: −log10 of the molar value. Counter-ions that a name gives are not always drawn.

biological target: T1, MASP-2 (CCP1-CCP2-SP) (Homo sapiens, UniProt O00187); test: Enzymatic Assay for MASP-2; assay type: biochemical; conditions: fluorogenic substrate based on C2 cleavage site, room temperature, 20 mM HEPES pH 7.4
T1 construct: 15 μL of Enzyme MASP-2 (CCP1-CCP2-SP) in Assay Buffer
T1 sequence (O00187 445-686 limits assumed): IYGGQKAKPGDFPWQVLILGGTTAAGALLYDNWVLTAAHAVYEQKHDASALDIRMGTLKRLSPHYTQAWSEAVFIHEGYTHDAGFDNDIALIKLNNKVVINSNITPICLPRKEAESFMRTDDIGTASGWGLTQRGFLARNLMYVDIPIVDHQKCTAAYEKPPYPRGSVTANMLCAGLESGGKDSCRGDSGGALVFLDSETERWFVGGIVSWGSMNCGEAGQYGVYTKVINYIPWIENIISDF
T1 sequence (O00187 298-444 partner limits assumed): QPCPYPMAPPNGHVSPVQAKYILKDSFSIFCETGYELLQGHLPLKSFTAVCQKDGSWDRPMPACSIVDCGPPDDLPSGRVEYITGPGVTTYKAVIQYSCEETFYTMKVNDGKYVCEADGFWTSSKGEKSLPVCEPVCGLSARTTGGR
Experimental: Enzymatic Assay for MASP-2
The MASP-2 assay utilizes a fluorogenic substrate, based on the cleavage site for its natural substrate C2. The assay is run at room temperature in an assay buffer containing 20 mM HEPES, pH 7.4, 140 mM NaCl and 0.1% Tween 20. Assay parameters are adjusted such that the assay is linear with respect to time, enzyme, and substrate concentrations. Under these optimized assays conditions, IC50 values are equivalent to Ki values, except in a few cases of “tight binding” inhibitors. Cases of “tight binding” or possible “slow binding” inhibitors are handled by the methods described in Copeland R. A. (2013) Evaluation of Enzyme Inhibitors in Drug Discovery. 2nd Ed., John Wiley and Sons, Inc., Chapters 5-7.
The MASP-2 assay protocol is carried out as follows. Test compounds are serially diluted in DMSO and then 100 nL of each dilution is transferred to the assay plate(s). 10 μL of Assay Buffer is added, followed by 15 μL of Enzyme MASP-2 (CCP1-CCP2-SP) in Assay Buffer. 15 μL of Substrate in Assay Buffer is then added and mixed to start the reactions. After 20 min at room temperature, 15 μL of a stop solution (0.1 M acetic acid) is added, mixed and the plates are read on a SpectraMax i3x Microplate Reader and exported as Excel files. Each assay plate included a “no inhibitor” (DMSO Only) control, a “no enzyme” control and a reference inhibitor control. % Activity values=100*(average test comp. fluorescence−average “no enzyme” fluorescence)/(average “DMSO only” fluorescence−average “no enzyme” fluorescence). IC50 and Ki values are very reproducible, falling well within ±2-fold.

Compound	pKi
O=C(Cn1c(-c2cnn3c2CCC3)cnc(NCCc2ccccc2)c1=O)NCc1cc2cnccc2[nH]1 [Compound 115, N-((1H-Pyrrolo[3,2-c]pyridin-2-yl)methyl)-2-(6-(5,6-dihydro-4H-pyrrolo[1,2-b]pyrazol-3-yl)-2-oxo-3-(phenethylamino)pyrazin-1(2H)-yl)acetamide]	> 6.30
CCOCCCNc1ncc(-c2cnn(C)c2)n(CC(=O)NCc2cc3cnccc3[nH]2)c1=O [Compound 129, trifluoroacetate]	> 6.30
O=C(Cn1c(-c2ccccc2)cnc(NCCc2ccccc2)c1=O)NCc1cc2c(s1)CNCC2 [Compound 83, 2-(2-Oxo-3-(Phenethylamino)-6-Phenylpyrazin-1(2H)-yl)-N-((4,5,6,7-Tetrahydrothieno[2,3-c]Pyridin-2-yl)Methyl)Acetamide]	> 6.30
COc1ccccc1CCNc1ncc(-c2ccccc2)n(CC(=O)NCc2cc3cnccc3[nH]2)c1=O [Compound 141, N-((1H-Pyrrolo[3,2-c]pyridin-2-yl)methyl)-2-(3-((2-methoxyphenethyl)amino)-2-oxo-6-phenylpyrazin-1(2H)-yl)acetamide]	> 6.30
COC(=O)[C@H](Cc1ccc(O)cc1)Nc1ncc(-c2ccccc2)n(CC(=O)NCc2cc3cnccc3[nH]2)c1=O [Compound 163, Methyl (4-(2-(((1H-pyrrolo[3,2-c]pyridin-2-yl)methyl)amino)-2-oxoethyl)-3-oxo-5-phenyl-3,4-dihydropyrazin-2-yl)-L-tyrosinate trifluoroacetate]	> 6.30
O=C(Cn1c(-c2ccccc2)cnc(N2CC[C@H](c3ccccc3)C2)c1=O)NCc1cc2cnccc2[nH]1 [Compound 143, (R)-N-((1H-Pyrrolo[3,2-c]pyridin-2-yl)methyl)-2-(2-oxo-6-phenyl-3-(3-phenylpyrrolidin-l-yl)pyrazin-1(2H)-yl)acetamide]	> 6.30
O=C(Cn1c(-c2cnn(C(F)F)c2)cnc(NCCc2ccccc2)c1=O)NCc1cc2cnccc2[nH]1 [Compound 113, N-((1H-Pyrrolo[3,2-c]pyridin-2-yl)methyl)-2-(6-(1-(difluoromethyl)-1H-pyrazol-4-yl)-2-oxo-3-(phenethylamino)pyrazin-1(2H)-yl)acetamide]	> 6.30
Cc1cc(Cl)cc(CNC(=O)Cn2c(=O)c(NCCc3ccccc3)cn(C)c2=O)c1O [Compound 35, trifluoroacetate]	5.00 to 5.60
O=C(Cn1c(-c2ccccc2)cnc(N2CC(c3ccccc3)C2)c1=O)NCc1cc2cnccc2[nH]1 [Compound 139, N-((1H-Pyrrolo[3,2-c]pyridin-2-yl)methyl)-2-(2-oxo-6-phenyl-3-(3-phenylazetidin-l-yl)pyrazin-1(2H)-yl)acetamide]	> 6.30
Cn1cc(NS(=O)(=O)Cc2ccccc2)c(=O)n(CC(=O)NCc2ccc(C(=N)N)cc2)c1=O [Compound 37, N-(4-Carbamimidoylbenzyl)-2-(3-Methyl-2,6-Dioxo-5-((Phenylmethyl)Sulfonamido)-3,6-Dihydropyrimidin-1(2H)-yl)Acetamide, Trifluoroacetate]	5.60 to 6.30
Cc1nc(N)ccc1CNC(=O)Cn1c(-c2ccccc2Cl)cnc(NCCc2ccccc2)c1=O [Compound 29]	> 6.30
Cc1nc(N)ccc1CNC(=O)Cn1c(-c2ccnc(N)c2)cnc(NCCc2ccccc2)c1=O [Compound 84, N-((6-Amino-2-Methylpyridin-3-yl)Methyl)-2-(6-(2-Aminopyridin-4-yl)-2-Oxo-3-(Phenethylamino)Pyrazin-1(2H)-yl)Acetamide]	> 6.30
CC(C)n1cc(-c2cnc(NCCc3ccccc3)c(=O)n2CC(=O)NCc2cc3cnccc3[nH]2)cn1 [Compound 103, N-((1H-Pyrrolo[3,2-c]pyridin-2-yl)methyl)-2-(6-(1-isopropyl-1H-pyrazol-4-yl)-2-oxo-3-(phenethylamino)pyrazin-1(2H)-yl)acetamide]	> 6.30
Cc1nc(N)ccc1CNC(=O)Cn1c(-c2ccccc2)cnc(N2CCCC2)c1=O [Compound 43, N-((6-Amino-2-Methylpyridin-3-yl)Methyl)-2-(2-Oxo-6-Phenyl-3-(Pyrrolidin-1-yl)Pyrazin-1(2H)-yl)Acetamide]	> 6.30
COc1cccc(C2(CNc3ncc(-c4ccccc4)n(CC(=O)NCc4cc5cnccc5[nH]4)c3=O)CC2)c1 [Compound 68, N-((1H-Pyrrolo[3,2-c]pyridin-2-yl)methyl)-2-(3-(((1-(3-methoxyphenyl)cyclopropyl)methyl)amino)-2-oxo-6-phenylpyrazin-1(2H)-yl)acetamide trifluoroacetate]	> 6.30
Cc1nc(N)ccc1CNC(=O)Cn1c(-c2ccccc2)c(Cl)nc(NC2COC2c2ccccc2)c1=O (stereo not drawn) [Compound 42]	5.60 to 6.30
Cn1cc(-c2cnc(NCCc3ccccc3)c(=O)n2CC(=O)NCc2cc3cnccc3[nH]2)cn1 [Compound 101, N-((1H-Pyrrolo[3,2-c]pyridin-2-yl)methyl)-2-(6-(1-methyl-1H-pyrazol-4-yl)-2-oxo-3-(phenethylamino)pyrazin-1(2H)-yl)acetamide]	> 6.30
O=C(Cn1c(-c2ccccc2)cnc(N2CCC3(CCNCC3)C2)c1=O)NCc1cc2cnccc2[nH]1 [Compound 54, N-((1H-Pyrrolo[3,2-c]Pyridin-2-yl)Methyl)-2-(2-Oxo-6-Phenyl-3-(2,8-Diazaspiro[4.5]Decan-2-yl)Pyrazin-1(2H)-yl)Acetamide Di-Trifluoroacetate]	5.60 to 6.30
CCOCCCNc1ncc(-c2ccccc2)n(CC(=O)NCc2cc3cnccc3[nH]2)c1=O [Compound 126, N-((1H-Pyrrolo[3,2-c]Pyridin-2-yl)Methyl)-2-(3-((3-Ethoxypropyl)Amino)-2-Oxo-6-Phenylpyrazin-1(2H)-yl)Acetamide Trifluoroacetate]	> 6.30
Cc1nc(N)ccc1CNC(=O)Cn1c(=O)c(NCCc2ccccc2)cn(C)c1=O [Compound 34, N-((6-Amino-2-Methylpyridin-3-yl)Methyl)-2-(3-Methyl-2,6-Dioxo-5-(Phenethylamino)-3,6-Dihydropyrimidin-1(2H)-yl)Acetamide]	> 6.30
O=C(Cn1c(-c2ccccc2)cnc(NCc2cccc(C(F)(F)F)c2)c1=O)NCc1cc2cnccc2[nH]1 [Compound 152, N-((1H-Pyrrolo[3,2-c]pyridin-2-yl)methyl)-2-(2-oxo-6-phenyl-3-((3-(trifluoromethyl)benzyl)amino)pyrazin-1(2H)-yl)acetamide]	> 6.30
CNc1ncc(-c2ccccc2)n(CC(=O)NCc2ccc(N)nc2C)c1=O [Compound 45, N-((6-Amino-2-methylpyridin-3-yl)methyl)-2-(3-(methylamino)-2-oxo-6-phenylpyrazin-1(2H)-yl)acetamide]	> 6.30
O=C(Cn1c(-c2ccccc2)cnc(NCc2cccc(Cl)c2)c1=O)NCc1cc2cnccc2[nH]1 [Compound 75, N-((1H-Pyrrolo[3,2-c]pyridin-2-yl)methyl)-2-(3-((3-chlorobenzyl)amino)-2-oxo-6-phenylpyrazin-1(2H)-yl)acetamide trifluoroacetate]	> 6.30
COCCCCNc1ncc(-c2ccccc2)n(CC(=O)NCc2cc3cnccc3[nH]2)c1=O [Compound 124, N-((1H-Pyrrolo[3,2-c]pyridin-2-yl)methyl)-2-(3-((4-methoxybutyl)amino)-2-oxo-6-phenylpyrazin-1(2H)-yl)acetamide trifluoroacetate]	> 6.30
